Test results taken from the NIST ThermoML archive (doi:10.1016/j.jct.2010.12.028).

Key:
[1] = excess molar enthalpy (molar enthalpy of mixing); xn = mol fraction of the nth substance listed; conditions: 308.15 K, 101 kPa, Liquid
[2] = xn = mol fraction of the nth substance listed; conditions: 101 kPa, Liquid; for speed of sound: Sing-around technique in a fixed-path interferometer; for mass density: Vibrating tube method

Cc1ccccc1N [2-methylaniline] + c1ccncc1
Conditions	excess molar enthalpy, [1] [kcal/mol]	mass density, [2] [kg/m3]	speed of sound, [2] [m/s]
298.15 K, x1 = 0.0652	–	980.854	1431.7
298.15 K, x1 = 0.1138	–	982.607	1442.1
298.15 K, x1 = 0.1477	–	983.731	1449.2
298.15 K, x1 = 0.1853	–	984.895	1457
298.15 K, x1 = 0.2374	–	986.375	1467.7
298.15 K, x1 = 0.2686	–	987.172	1474
298.15 K, x1 = 0.3005	–	987.937	1480.3
298.15 K, x1 = 0.3526	–	989.058	1490.5
298.15 K, x1 = 0.4104	–	990.119	1501.4
298.15 K, x1 = 0.4837	–	991.237	1514.8
298.15 K, x1 = 0.5238	–	991.751	1522
298.15 K, x1 = 0.5641	–	992.187	1529.1
298.15 K, x1 = 0.6231	–	992.73	1539.3
298.15 K, x1 = 0.6974	–	993.253	1551.7
298.15 K, x1 = 0.7678	–	993.622	1563.4
298.15 K, x1 = 0.8236	–	993.838	1572.5
298.15 K, x1 = 0.8622	–	993.969	1578.9
298.15 K, x1 = 0.9621	–	994.245	1595.9
303.15 K, x1 = 0.0652	–	975.904	1411.5
303.15 K, x1 = 0.1138	–	977.714	1421.8
303.15 K, x1 = 0.1277	–	978.889	–
303.15 K, x1 = 0.1477	–	–	1429
303.15 K, x1 = 0.1853	–	980.111	1436.9
303.15 K, x1 = 0.2374	–	981.65	1447.7
303.15 K, x1 = 0.2686	–	982.485	1454
303.15 K, x1 = 0.3005	–	983.289	1460.4
303.15 K, x1 = 0.3526	–	984.461	1470.6
303.15 K, x1 = 0.4104	–	985.592	1481.7
303.15 K, x1 = 0.4837	–	986.789	1495.3
303.15 K, x1 = 0.5238	–	987.335	1502.6
303.15 K, x1 = 0.5641	–	987.803	1509.6
303.15 K, x1 = 0.6231	–	988.386	1519.7
303.15 K, x1 = 0.6974	–	988.955	1531.8
303.15 K, x1 = 0.7678	–	989.362	1542.9
303.15 K, x1 = 0.8236	–	989.613	1551.6
303.15 K, x1 = 0.8622	–	989.756	1557.4
303.15 K, x1 = 0.9621	–	990.097	1572.2
308.15 K, x1 = 0.0652	–	970.897	1391.8
308.15 K, x1 = 0.1138	–	972.767	1402.4
308.15 K, x1 = 0.1477	–	973.991	1409.8
308.15 K, x1 = 0.1853	–	975.253	1417.8
308.15 K, x1 = 0.2374	–	976.858	1428.6
308.15 K, x1 = 0.2686	–	977.748	1435
308.15 K, x1 = 0.3005	–	978.587	1441.4
308.15 K, x1 = 0.3526	–	979.835	1451.7
308.15 K, x1 = 0.4104	–	981.051	1462.7
308.15 K, x1 = 0.4837	–	982.322	1476.3
308.15 K, x1 = 0.5238	–	982.917	1483.6
308.15 K, x1 = 0.5641	–	983.434	1490.6
308.15 K, x1 = 0.6231	–	984.067	1500.7
308.15 K, x1 = 0.6974	–	984.698	1513.1
308.15 K, x1 = 0.7678	–	985.142	1524.3
308.15 K, x1 = 0.8236	–	985.416	1532.9
308.15 K, x1 = 0.8622	–	985.573	1538.6
308.15 K, x1 = 0.9621	–	985.933	1553.2
two-drop calorimeter, x1 = 0.0397	-0.052	–	–
two-drop calorimeter, x1 = 0.0728	-0.0894	–	–
two-drop calorimeter, x1 = 0.1263	-0.137	–	–
two-drop calorimeter, x1 = 0.1742	-0.171	–	–
two-drop calorimeter, x1 = 0.2163	-0.192	–	–
two-drop calorimeter, x1 = 0.2681	-0.213	–	–
two-drop calorimeter, x1 = 0.3192	-0.23	–	–
two-drop calorimeter, x1 = 0.3707	-0.24	–	–
two-drop calorimeter, x1 = 0.4212	-0.245	–	–
two-drop calorimeter, x1 = 0.4826	-0.247	–	–
two-drop calorimeter, x1 = 0.5261	-0.245	–	–
two-drop calorimeter, x1 = 0.5815	-0.241	–	–
two-drop calorimeter, x1 = 0.6327	-0.23	–	–
two-drop calorimeter, x1 = 0.7026	-0.213	–	–
two-drop calorimeter, x1 = 0.7735	-0.187	–	–
two-drop calorimeter, x1 = 0.8177	-0.165	–	–
two-drop calorimeter, x1 = 0.8802	-0.123	–	–
two-drop calorimeter, x1 = 0.9723	-0.0346	–	–

Cc1ccncc1 [4-methylpyridine] + Cc1ccccc1N
[1]
Conditions	excess molar enthalpy [kcal/mol]
x2 = 0.0426	-0.0583
x2 = 0.0815	-0.106
x2 = 0.1339	-0.166
x2 = 0.1824	-0.211
x2 = 0.2243	-0.246
x2 = 0.2715	-0.282
x2 = 0.3196	-0.305
x2 = 0.3825	-0.332
x2 = 0.4238	-0.341
x2 = 0.4783	-0.342
x2 = 0.5362	-0.338
x2 = 0.5915	-0.322
x2 = 0.6426	-0.303
x2 = 0.7121	-0.261
x2 = 0.7827	-0.212
x2 = 0.8211	-0.178
x2 = 0.8916	-0.114
x2 = 0.9672	-0.0361

[2]
Conditions	mass density, 298.15 K [kg/m3]	mass density, 303.15 K [kg/m3]	mass density, 308.15 K [kg/m3]	speed of sound, 298.15 K [m/s]	speed of sound, 303.15 K [m/s]	speed of sound, 308.15 K [m/s]
x2 = 0.0525	953.707	949.033	944.539	1440.5	1419.5	1399.3
x2 = 0.1236	958.201	953.635	949.213	1452.6	1431.8	1412.2
x2 = 0.1357	958.939	954.384	949.974	1454.8	1433.9	1414.4
x2 = 0.1839	961.774	957.264	952.886	1463.1	1442.5	1423.2
x2 = 0.2328	964.507	960.045	955.673	1471.4	1451.2	1432.1
x2 = 0.2655	966.252	961.821	957.455	1477.1	1457	1438.1
x2 = 0.3023	968.154	963.746	959.382	1483.4	1463.5	1444.7
x2 = 0.3539	970.688	966.314	961.964	1492.2	1472.7	1453.9
x2 = 0.4133	973.431	969.1	964.753	1502.4	1483	1464.4
x2 = 0.4863	976.578	972.285	967.972	1514.7	1495.5	1476.8
x2 = 0.5256	978.183	973.912	969.611	1521.3	1501.9	1483.2
x2 = 0.5671	979.804	975.56	971.274	1528.2	1508.7	1490
x2 = 0.6272	982.039	977.832	973.587	1538.3	1518.4	1499.7
x2 = 0.6963	984.487	980.309	976.116	1549.8	1529.2	1510.4
x2 = 0.7674	986.874	982.738	978.601	1561.7	1540.2	1521.3
x2 = 0.8234	988.699	984.584	980.475	1571.2	1548.8	1530
x2 = 0.8657	990.061	985.955	981.851	1578.4	1555.4	1536.6
x2 = 0.9537	992.867	988.752	984.639	1594	1569.8	1550.6
